# Measured values: patent publication US20170253607A1, “LONG-ACTING HIV PROTEASE INHIBITOR” (Shionogi & Co., Ltd., priority 2014, published 2017)
# pIC50: −log10 of the molar value.
# Columns and labels:
# [1] = molecular target: HIV-1 PR (Human immunodeficiency virus type 1 group M subtype B, UniProt P04585); assay: HIV-protease inhibitory activity assay (FRET peptide substrate); format: biochemical; details: Test Example 1
# Procedure, shortened: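 Fluorescence recovery at ex 485/em 535 nm reports cleavage of a quenched FRET peptide (2 μmol/L final) by 0.83 ng enzyme over 60 minutes at room temperature. Buffer was NaAc pH 4.8 with NaCl, EDTA, DTT and Tween 20. IC50 values came from four-parameter logistic regression of % inhibition.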
# [2] = Protein binding test (equilibrium dialysis, unbound ratio fu in serum); format: in vitro ADME; details: 37° C.; for rat_fu: rat serum, equilibrium dialysis 24 hours, 2 μg/mL
# Description: Assay condition: Evaluation method; Equilibrium dialysis method, Reaction time; 24 hours, Reaction temperature; 37° C., Assay concentration; 2 μg/mL A solution of the compound was added to each serum and mixed to prepare the serum samples with above concentration. The serum sample was put into one side of an equilibrium dialysis apparatus with dialysis membrane and phosphate buffered saline (PBS) was also put to another side of the apparatus. The apparatus was incubated at 37° C. for 24 hours. After incubation, the serum and PBS samples were collected and the compound concentrations in both samples were measured by LC/MS/MS. Fu was calculated by dividing the concentration in PBS by the concentration in the serum.
# [3] = Evaluation of total body clearance (CLtot), intravenous administration; format: in vivo, Sprague-Dawley (SD); details: rat (SD), intravenous administration 0.5-10 mg/kg; CLtot = dose/AUC
# Procedure, shortened: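 Compounds given as a single tail-vein injection at 0.5-10 mg/kg (n=2-3), dose varying by compound. Plasma sampled at scheduled times and measured by LC/MS/MS; CLtot derived as dose divided by AUC from pharmacokinetic analysis.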
"fraction unbound at 24 h, 2 μg/mL ([2]; serum, equilibrium dialysis, 24 hours, read-out: Serum protein binding rate (converted))",SMILES,pIC50 [1],rat_fu [2] [%],rat_CLt [3] [mL/min/kg]
,COc1ccc(S(=O)(=O)N(CC(C)C)CC(O)C(Cc2ccc(NCc3ccc(C)cc3-c3sc4c(c3C(=O)O)CC(C)(C)CC4)cc2)NC(=O)OC2COC3(C)OCCC23)cc1 (stereo not shown) [Compound I-272],8.68,<0.1,0.715
,COc1ccc(S(=O)(=O)N(CC(C)C)C[C@@H](O)[C@H](Cc2ccc(NCc3ccccc3C(=O)Nc3sc4c(c3C(=O)O)CC(C)(C)CC4)cc2)NC(=O)O[C@H]2CO[C@@]3(C)OCC[C@@H]23)cc1 [Compound I-396],8.56,<0.1,0.0572
,CC1(C)CCc2sc(-c3ccc(OCCN(CC(O)C(Cc4ccccc4)NC(=O)OC4COC5(C)OCCC45)S(=O)(=O)c4ccc5ncsc5c4)cc3)c(C(=O)O)c2C1 (stereo not shown) [Compound I-165],8.49,<0.1,1.08
,COc1ccc(S(=O)(=O)N(CC(C)C)CC(O)C(Cc2ccc(NCCc3ccccc3-c3sc4c(c3C(=O)O)CC(C)(C)CC4)cc2)NC(=O)OC2COC3(C)OCCC23)cc1 (stereo not shown) [Compound I-262],8.40,<0.1,0.343
,COc1ccc(S(=O)(=O)N(CC2CCCC2)CC(O)C(Cc2ccc(OCc3ccccc3-n3nc4c(c3C(=O)O)CC3(CCCC3)CC4)cc2)NC(=O)OC2COC3(C)OCCC23)cc1 (stereo not shown) [Compound I-146],9.04,<0.1,0.584
,COc1ccc(S(=O)(=O)N(CC(C)C)CC(O)C(Cc2ccc(NCc3cccc(-c4sc5c(c4C(=O)O)CC(C)(C)CC5)c3C)cc2)NC(=O)OC2COC3(C)OCCC23)cc1 (stereo not shown) [Compound I-292],8.57,<0.1,0.166
,CC(C)CN(CC(O)C(Cc1ccc(OCc2ccccc2-c2ccc3c(c2)C(=O)C(c2ccc(F)cc2)C3=O)cc1)NC(=O)OC1COC2(C)OCCC12)S(=O)(=O)c1ccc2ncsc2c1 (stereo not shown) [Compound I-175],8.70,<0.1,4.44
,COc1ccc(S(=O)(=O)N(CC2CCCC2)CC(O)C(Cc2ccc(OCc3cc(C(F)(F)F)ccc3-c3nc4n(c3C(=O)O)CCCC4)cc2)NC(=O)OC2COC3(C)OCCC23)cc1 (stereo not shown) [Compound I-205],8.69,<0.1,1.68
,COc1ccc(S(=O)(=O)N(CC(C)C)CC(O)C(Cc2ccc(OCc3cc(C#N)ccc3-c3sc4c(c3C(=O)O)CC(C)(C)CC4)cc2)NC(=O)OC2COC3(C)OCCC23)cc1 (stereo not shown) [Compound I-79],8.76,<0.1,3.15
,COc1ccc(S(=O)(=O)N(CC(C)C)CC(O)C(Cc2ccc(NCc3ccc(F)cc3-c3sc4c(c3C(=O)O)CC(C)(C)CC4)cc2)NC(=O)OC2COC3(C)OCCC23)cc1 (stereo not shown) [Compound I-275],8.68,<0.1,2.12
,COc1ccc(S(=O)(=O)N(CC(C)C)CC(O)C(Cc2ccc(NC3CCN(c4ccccc4-c4sc5c(c4C(=O)O)CC(C)(C)CC5)C3)cc2)NC(=O)OC2COC3(C)OCCC23)cc1 (stereo not shown) [Compound I-238],8.60,<0.1,3.05
,COc1ccc(S(=O)(=O)N(CC(C)C)CC(O)C(Cc2ccc(OCc3ncc(F)cc3-c3sc4c(c3C(=O)O)CC(C)(C)CC4)cc2)NC(=O)OC2COC3(C)OCCC23)cc1 (stereo not shown) [Compound I-182],8.84,<0.1,3.84
,COc1ccc(S(=O)(=O)N(CC(C)C)CC(O)C(Cc2ccc(NCc3cnc4ccccc4c3-c3sc4c(c3C(=O)O)CC(C)(C)CC4)cc2)NC(=O)OC2COC3(C)OCCC23)cc1 (stereo not shown) [Compound I-384],8.18,<0.1,0.253
,CC(C)CN(CC(O)C(Cc1ccccc1)NC(=O)OC1COC2(C)OCCC12)S(=O)(=O)c1ccc2nc(NCc3ccc(-c4sc5c(c4C(=O)O)CC(C)(C)CC5)cc3)sc2c1 (stereo not shown) [Compound I-798],9.00,<0.1,4.54
,COc1ccc(S(=O)(=O)N(CC2CCCC2)CC(O)C(Cc2ccc(OCc3ccccc3-n3nc4c(c3C(=O)O)CC(C(F)(F)F)CC4)cc2)NC(=O)OC2COC3(C)OCCC23)cc1 (stereo not shown) [Compound I-140],8.85,<0.1,0.111
,COc1ccc(S(=O)(=O)N(CC(C)C)CC(O)C(Cc2ccc(NCc3ncc(-c4sc5c(c4C(=O)O)CC(C)(C)CC5)s3)cc2)NC(=O)OC2COC3(C)OCCC23)cc1 (stereo not shown) [Compound I-297],8.74,<0.1,3.54
,COc1ccc(S(=O)(=O)N(CC(C)C)CC(O)C(Cc2ccc(OCc3ccccc3-c3ncc4c(c3C(=O)O)CCC(C)(C)C4)cc2)NC(=O)OC2COC3(C)OCCC23)cc1 (stereo not shown) [Compound I-197],8.71,<0.1,3.81
,COc1ccc(S(=O)(=O)N(CC(C)C)CC(O)C(Cc2ccccc2)NC(=O)OC2COC3(COC(=O)NCc4sc5c(c4C(=O)O)CC(C)(C)CC5)OCCC23)cc1 (stereo not shown) [Compound I-780],8.79,<0.1,2.23
0.903,"CC(C)CN(C[C@@H](O)[C@H](Cc1ccccc1)NC(=O)O[C@H]1CO[C@H]2OCC[C@H]21)S(=O)(=O)c1ccc(N)cc1 [Darunavir, (3R,3aS,6aR)-hexahydrofuro[2,3-b]furan-3-yl[(1S,2R)-3-{[(4-aminophenyl)sulfonyl] (2-methylpropyl)amino}-1-benzyl-2-hydroxypropyl]carbamate, reference compound]",,,
,CC1(C)CCc2sc(NC(=O)c3ccccc3CNc3ccc(CC(NC(=O)OC4COC5OCCC45)C(O)CN(CC4CCCC4)S(=O)(=O)c4ccc5c(c4)OCO5)cc3)c(C(=O)O)c2C1 (stereo not shown) [Compound I-858],8.37,,0.142
,COc1ccc(S(=O)(=O)N(CC(C)C)CC(O)C(Cc2ccc(NCc3cc(N4CCCCC4)ccc3-c3sc4c(c3C(=O)O)CC(C)(C)CC4)cc2)NC(=O)OC2COC3(C)OCCC23)cc1 (stereo not shown) [Compound I-689],8.70,,0.385
,COc1ccc(S(=O)(=O)N(CC(C)C)CC(O)C(Cc2ccc(N(C)Cc3ccc(F)cc3-c3sc4c(c3C(=O)O)CC(C)(C)CC4)cc2)NC(=O)OC2COC3(C)OCCC23)cc1 (stereo not shown) [Compound I-491],8.72,,3.32
,COc1ccc(S(=O)(=O)N(CC(C)C)CC(O)C(Cc2ccc(NCc3cc4ccccc4nc3-c3sc4c(c3C(=O)O)CC(C)(C)CC4)cc2)NC(=O)OC2COC3(C)OCCC23)cc1 (stereo not shown) [Compound I-652],8.61,,0.641
,COc1ccc(S(=O)(=O)N(CC(C)C)CC(O)C(Cc2ccc(OCc3ccccc3NC(=O)c3sc4c(c3C(=O)O)CC(C)(C)CC4)cc2)NC(=O)OC2COC3(C)OCCC23)cc1 (stereo not shown) [Compound I-214],8.72,,0.297
,COc1ccc(S(=O)(=O)N(CC(C)C)CC(O)C(Cc2ccc(NCc3cnc4sccc4c3-c3sc4c(c3C(=O)O)CC(C)(C)CC4)cc2)NC(=O)OC2COC3(C)OCCC23)cc1 (stereo not shown) [Compound I-648],8.64,,0.783
